According to US20180370922A1, “ANTI-INFLAMMATORY 6-PHENOXYPYRIMIDINE DERIVATIVES, PROCESS FOR THEIR PREPARATION AND PHARMACEUTICAL COMPOSITION CONTAINING THEM” (priority 2017, published 2018):

Legend:
[1] = test system: iNOS mRNA; experiment: iNOS mRNA expression level; type: cell-based; conditions: FIG. 5A
Protocol: Western blotting was conducted to identify the mechanism of the NO and PGE2 production inhibiting activity of the compound of the present invention. The inhibition of iNOS and COX-2 protein production and mRNA upregulation was tested.

[2] = test system: IL-6; experiment: Cytokine production inhibiting activity, IL-6; type: cell-based; conditions: at a concentration of 12 μM, FIG. 6
Protocol: (§1) The inhibitory activity for the proinflammatory cytokines TNF-α, IL-1β and IL-6 was tested for the compound of the present invention.

[3] = test system: TNF-α; experiment: Cytokine production inhibiting activity, TNF-α; type: cell-based; conditions: at a concentration of 12 μM, FIG. 6
Protocol: as §1

[4] = test system: LPS-induced PEG2 production; experiment: Measurement of PEG2 production; type: cell-based; conditions: FIG. 3
[5] = test system: LPS-induced NO production in RAW 264.7 macrophages; experiment: Measurement of nitrite (Griess test) as a measure of NO production; type: cell-based, murine; conditions: FIG. 2
Protocol: The concentration of nitrite accumulated in the culture medium was measured by the Griess test as a measure of nitric oxide (NO) production. L-NIL was used as the positive control.

[6] = test system: RAW 264.7 macrophages
Protocol: RAW 264.7 macrophages were seeded onto a 24-well plate, cultured with a sample or an adequate positive control under various concentration conditions and then LPS (lipopolysaccharides) were activated for 24 hours. After adding a 20 μL MTT (5 mg/mL) solution to each well, the cells were cultured further for 4 hours. After removing the supernatant, 1 mL of formazan dissolved in dimethyl sulfoxide (DMSO) was added to each well. Then, absorbance was measured by ELISA at a wavelength of 540 nm.

## COc1ccc(Oc2nc(Nc3ccc(N4CCOCC4)cc3)ncc2/N=C/c2cc(OC)cc(OC)c2)cc1 [Example 21, (E)-5-((3,5-dimethoxybenzylidene)amino)-4-(4-methoxyphenoxy)-N-(4-morpholinophenyl)pyrimidin-2-amine]
[1]
  inhibition of LPS-induced upregulation of iNOS mRNA: inhibit LPS-induced upregulation of iNOS mRNA
[2]
  inhibition of IL-6 production: inhibit the production of TNF-α and IL-6
[3]
  inhibition of TNF-α production: inhibit the production of TNF-α
[4]
  inhibition of LPS-induced PEG2 production: inhibit LPS-induced PEG2 production in a dose-dependent manner
[5]; RAW 264.7 macrophages, LPS 24 hours, Griess test
  inhibition of LPS-induced NO production: inhibit LPS-induced NO production in a dose-dependent manner
[5]; relative to L-NIL
  NO inhibitory activity as compared to the positive control L-NIL: 2 times
[6]
  cell viability (toxicity): little toxicity
